Our source for the GI50 and IC50 values is patent US9580390B2, “Indazole compounds as kinase inhibitors and method of treating cancer with same” (University Health Network, priority 2011, dated 2017).

Structures are written as SMILES. Like-named read-outs stand apart in the source and are kept apart here.

The test system of test [1] is ovarian cancer cells (PA-1). In words: Cancer cell line growth inhibition (SRB assay). It counts as cell-based. The settings on record: read-out: Cancer Cell Line GI50 Range PA-1.
Method: Breast cancer cells (MDA-MB-231), colon cancer cells (HCT116) and ovarian cancer cells (PA-1) were seeded (1000 to 4000 in 80 μl per well depending on the cell growth rate) into 96 well plates 24 hours before compound overlay. Compounds were prepared as 10 mM stock solutions in 100% DMSO which were diluted with DMEM (Dulbecco's Modified Eagle's Medium) cell growth Medium (Invitrogen, Burlington, ON, Canada) containing 10% FBS (Fetal Bovine Serum) to concentrations ranging from 50 nM to 250 μM. Aliquots (20 μl) from each concentration were overlaid to 80 μl of the pre-seeded cells in the 96 well plates to make final concentrations of 10 nM to 50 μM. The cells were cultured for 5 days before the Sulforhodamine B assay (SRB) was performed to determine the compound's cell growth inhibition activity.
Sulforhodamine B (purchased from Sigma, Oakville, ON, Canada) is a water-soluble dye that binds to the basic amino acids of the cellular proteins. Thus, colorimetric measurement of the bound dye provides an estimate of the total protein mass that is related to the cell number. the cells are fixed in situ by gently aspirating off the culture media and adding 50 μl ice cold 10% Trichloroacetic Acid (TCA) per well and incubate at 4° C. for 30-60 min. The plates are washed with H2O five times and allowed to air dry for 5 min. Addition of 50 μl 0.4% (w/v) SRB solution in 1% (v/v) acetic acid to each well and incubation for 30 min at RT completes the staining reaction. Following staining, plates are washed four times with 1% acetic acid to remove unbound dye and then allowed to air dry for 5 min. The stain is solubilized with 100 μl of 10 mM Tris pH 10.5 per well. Absorbance is read at 570 nm.
The percentage (%) of relative growth inhibition was calculated by comparing to DMSO treated only cells (100%). GI50's were determined for compounds with cytotoxic activity. The GI50 was calculated using GraphPad PRISM software (GraphPad Software, Inc., San Diego, Calif., USA).
For the next test, the system named is TICs (Colon 12). In words: Colon tumor-initiating cell growth inhibition (Alamar Blue). Type of test: cell-based. To be noted: 9 days, read-out: Tumor Initiating Cell GI50 Range Colon 12. Background: Alamar Blue is a resazurin reagent that responds to reducing activity.
A further test addresses T1, human TTK (Homo sapiens, UniProt P33981).
T1 construct: amino terminal GST fusion of full length human TTK; purchased Invitrogen
T1 sequence (P33981 1-857): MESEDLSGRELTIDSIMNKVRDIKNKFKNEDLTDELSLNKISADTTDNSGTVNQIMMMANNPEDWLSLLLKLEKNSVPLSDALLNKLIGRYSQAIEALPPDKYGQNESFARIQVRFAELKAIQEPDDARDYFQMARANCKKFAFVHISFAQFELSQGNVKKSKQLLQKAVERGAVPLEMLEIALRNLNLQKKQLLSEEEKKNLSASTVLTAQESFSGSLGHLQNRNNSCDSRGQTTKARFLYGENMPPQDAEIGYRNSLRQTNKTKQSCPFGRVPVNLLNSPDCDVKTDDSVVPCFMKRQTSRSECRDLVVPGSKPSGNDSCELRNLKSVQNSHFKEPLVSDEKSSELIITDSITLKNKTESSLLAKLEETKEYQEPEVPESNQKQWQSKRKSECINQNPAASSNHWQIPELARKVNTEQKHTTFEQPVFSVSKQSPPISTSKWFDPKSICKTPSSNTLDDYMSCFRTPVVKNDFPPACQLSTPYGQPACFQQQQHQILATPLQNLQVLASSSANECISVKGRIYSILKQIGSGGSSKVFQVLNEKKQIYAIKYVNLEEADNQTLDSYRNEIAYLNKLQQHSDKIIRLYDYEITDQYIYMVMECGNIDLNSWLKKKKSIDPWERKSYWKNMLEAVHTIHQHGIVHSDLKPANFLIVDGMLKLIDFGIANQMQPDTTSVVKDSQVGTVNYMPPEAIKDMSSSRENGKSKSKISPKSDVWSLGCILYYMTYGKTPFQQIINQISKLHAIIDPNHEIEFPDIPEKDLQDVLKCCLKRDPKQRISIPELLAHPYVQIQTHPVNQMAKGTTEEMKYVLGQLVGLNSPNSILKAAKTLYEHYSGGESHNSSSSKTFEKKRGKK
The test is described as follows: TTK inhibition assay (indirect ELISA). Type of test: biochemical. (In general: In an ELISA, binding on a coated surface is turned into a signal by an enzyme label.)

The next test concerns TICs (Ovarian 2393A). In words: Ovarian tumor-initiating cell growth inhibition (Alamar Blue). To be noted: 6 days, read-out: Tumor Initiating Cell GI50 Range Ovarain 2393A. It counts as cell-based.
In test [2] the test system is colon cancer cells (HCT116). The test is described as follows: Cancer cell line growth inhibition (SRB assay). It counts as cell-based. To be noted: read-out: Cancer Cell Line GI50 Range HCT116.
[3] abbreviates: PA-1 ovarian cancer cells, SRB assay.
The mark [4] stands for this setting: 144 h, ovarian TICs, Alamar Blue.
[5] abbreviates: Homo sapiens, HCT-116, HCT116 colon cancer cells, SRB assay.

Broadly, the GI50 is the concentration at which growth is held to half of that of the control. What is called IC50 is the concentration that gives 50% inhibition.

Method for human TTK: Active TTK was purchased from Invitrogen as an amino terminal GST fusion of full length human TTK. Amino terminal 6 histidine, sumo tagged human TTK (residues 1-275) was expressed in E. coli, and purified to >95% homogeneity by Ni^2+ agarose, gel filtration, and ion exchange chromatography.
TTK activity was measured using an indirect ELISA detection system. GST-TTK (0.68 nM) was incubated in the presence of 16 μM ATP (Sigma cat# A7699), 50 mM Hepes pH 7.2, 1 mM EGTA, 10 mM MgCl2, and 0.1% Pluronic in a 96 well microtitre plate pre-coated with amino terminal 6 histidine, sumo tagged TTK (amino acid residues 1-275). The reaction was allowed to proceed for 30 minutes, followed by 5 washes of the plate with Wash Buffer (phosphate buffered saline supplemented with 0.2% Tween 20), and incubation for 30 minutes with a 1:3000 dilution of primary antibody (Cell Signaling cat# 9381). The plate was washed 5 times with Wash Buffer, incubated for 30 minutes in the presence of secondary antibody coupled to horse radish peroxidase (BioRad cat# 1721019, 1:3000 concentration), washed an additional 5 times with Wash Buffer, and incubated in the presence of TMB substrate (Sigma cat# T0440). The colourimetric reaction was allowed to continue for 5 minutes, followed by addition of stop solution (0.5 N sulphuric acid), and quantified by detection at 450 nm with either a monochromatic or filter based plate reader (Molecular Devices M5 or Beckman DTX880, respectively).
Compounds were pre-incubated in the presence of enzyme for 5 minutes prior to addition of ATP and the activity remaining quantified using the above described activity assay. The % Inhibition of a compound was determined using the following formula: % Inhibition=100×(1−(experimental value−background value)/(high activity control−background value)). The IC50 value was determined using a non-linear 4 point logistic curve fit (XLfit4, IDBS) with the formula: (A+(B/(1+((x/C)^D)))), where A=background value, B=range, C=inflection point, D=curve fit parameter.

As to `O=C(NC(c1ccccn1)C1CCCC1)c1ccc2[nH]nc(-c3ccc(N4CCN(C5COC5)CC4)cc3)c2c1` (stereo not drawn) [Example A402, N-(cyclopentyl(pyridin-2-yl)methyl)-3-(4-(4-(oxetan-3-yl)piperazin-1-yl)phenyl)-1H-indazole-5-carboxamide], the GI50 is < 100 nM in test [1] (Homo sapiens, PA-1); < 100 nM with TICs (Colon 12) (216 h, Colon 12 TICs); < 100 nM with TICs (Ovarian 2393A) (144 h, Ovarian 2393A TICs); < 100 nM in test [2] (Homo sapiens, HCT-116). Also, the IC50 on human TTK (read-out: TTK IC50 Range) was < 100 nM.
In the case of `COCCN1CCC(Oc2ccc(-c3n[nH]c4ccc(C(=O)N[C@H](c5cccs5)C5CC5)cc34)cc2)CC1` [Example A163], the 50% growth inhibitory concentration (GI50) in test [1] (setting [3]) is < 100 nM; with TICs (Colon 12) (216 h, colon TICs, Alamar Blue), 100 to 500 nM; with TICs (Ovarian 2393A) (setting [4]), 100 to 500 nM; in test [2] (setting [5]), < 100 nM. Besides, the IC50 on human TTK (read-out: TTK IC50 Range) is < 100 nM.
Consider `O=CN1[C@@H]2CC[C@H]1C[C@@H](Oc1ccc(-c3n[nH]c4ccc(C(=O)NC(c5ccsc5)C5CCC5)cc34)cc1)C2` (stereo partly drawn) [Example A329, N-(cyclobutyl(thiophen-3-yl)methyl)-3-(4-(((1R,3R,5S)-8-formyl-8-azabicyclo[3.2.1]octan-3-yl)oxy)phenyl)-1H-indazole-5-carboxamide], for which the GI50 in test [1] (Homo sapiens, PA-1) was < 100 nM; in the test with TICs (Colon 12) (216 h, Colon 12 TICs), < 100 nM; in the test with TICs (Ovarian 2393A) (144 h, Ovarian 2393A TICs) it was < 100 nM; in test [2] (Homo sapiens, HCT-116) it was < 100 nM. In addition, the IC50 at human TTK (read-out: TTK IC50 Range) is < 100 nM.
For the molecule `C[C@@H](O)C(=O)N1CCC(Oc2ccc(-c3n[nH]c4ccc(C(=O)N[C@H](c5ccccc5)C5CC5)cc34)cc2)CC1` [Example A379, N-((S)-cyclopropyl(phenyl)methyl)-3-(4-((1-((R)-2-hydroxypropanoyl)piperidin-4-yl)oxy)phenyl)-1H-indazole-5-carboxamide], the GI50 in test [1] (Homo sapiens, PA-1) is 100 to 500 nM; with TICs (Colon 12) (216 h, Colon 12 TICs), < 100 nM; with TICs (Ovarian 2393A) (144 h, Ovarian 2393A TICs) it was 100 to 500 nM; in test [2] (Homo sapiens, HCT-116) it was 100 to 500 nM. Besides, the IC50 on human TTK (read-out: TTK IC50 Range) is < 100 nM.
As to `CC(C)C[C@@H](NC(=O)c1ccc2[nH]nc(-c3ccc(N4C5CCC4CC(O)C5)cc3)c2c1)c1ccccn1` (stereo partly drawn) [Example A305, 3-(4-((1R,3R,5S)-3-hydroxy-8-azabicyclo[3.2.1]octan-8-yl)phenyl)-N-((R)-3-methyl-1-(pyridin-2-yl)butyl)-1H-indazole-5-carboxamide], the GI50 in test [1] (Homo sapiens, PA-1) is < 100 nM; with TICs (Colon 12) (216 h, Colon 12 TICs), < 100 nM; in the test on TICs (Ovarian 2393A) (144 h, Ovarian 2393A TICs), < 100 nM; in test [2] (Homo sapiens, HCT-116), < 100 nM. The IC50 on human TTK was < 100 nM.
Consider `CN1CCN(c2ccc(-c3n[nH]c4ccc(C(=O)NCC5(N6CCOCC6)CCCCC5)cc34)cc2)CC1` [Example A453, 3-(4-(4-methylpiperazin-1-yl)phenyl)-N-((1-morpholinocyclohexyl)methyl)-1H-indazole-5-carboxamide], for which the GI50 is < 100 nM in test [1] (setting [3]); < 100 nM in the test with TICs (Colon 12) (216 h, colon TICs, Alamar Blue); 100 to 500 nM in the test on TICs (Ovarian 2393A) (setting [4]); < 100 nM in test [2] (setting [5]). In addition, the IC50 on human TTK (read-out: TTK IC50 Range) is < 100 nM.
With `O=CN1C2CCC1CC(Oc1ccc(-c3n[nH]c4ccc(C(=O)N[C@H](c5ccccc5Cl)C5CC5)cc34)cc1)C2` (stereo partly drawn) [Example A350, N-((S)-(2-chlorophenyl)(cyclopropyl)methyl)-3-(4-(((1R,3R,5S)-8-formyl-8-azabicyclo[3.2.1]octan-3-yl)oxy)phenyl)-1H-indazole-5-carboxamide], the GI50 is < 100 nM in test [1] (Homo sapiens, PA-1); < 100 nM in the test with TICs (Colon 12) (216 h, Colon 12 TICs); < 100 nM in the test with TICs (Ovarian 2393A) (144 h, Ovarian 2393A TICs); < 100 nM in test [2] (Homo sapiens, HCT-116). Also, the concentration for half-maximal inhibition (IC50) on human TTK (read-out: TTK IC50 Range) was < 100 nM.
In the case of `O=CN1C2CCC1CC(Oc1ccc(-c3n[nH]c4ccc(C(=O)N[C@H](c5ccccc5)C5CC5)cc34)cc1)C2` (stereo partly drawn) [Example A328, N-((S)-cyclopropyl(phenyl)methyl)-3-(4-(((1R,3R,5S)-8-formyl-8-azabicyclo[3.2.1]octan-3-yl)oxy)phenyl)-1H-indazole-5-carboxamide], the GI50 in test [1] (Homo sapiens, PA-1) is < 100 nM; with TICs (Colon 12) (216 h, Colon 12 TICs), < 100 nM; in the test with TICs (Ovarian 2393A) (144 h, Ovarian 2393A TICs), 100 to 500 nM; in test [2] (Homo sapiens, HCT-116) it was < 100 nM. In addition, at human TTK (read-out: TTK IC50 Range), the IC50 is < 100 nM.
With `O=CN1CCC(Oc2ccc(-c3n[nH]c4ccc(C(=O)NCC5(N6CCOCC6)CCCCC5)cc34)cc2)CC1` [Example A504, 3-(4-((1-formylpiperidin-4-yl)oxy)phenyl)-N-((1-morpholinocyclohexyl)methyl)-1H-indazole-5-carboxamide], the GI50 was 100 to 500 nM in test [1] (setting [3]); 100 to 500 nM in the test with TICs (Colon 12) (216 h, colon TICs, Alamar Blue); 100 to 500 nM with TICs (Ovarian 2393A) (setting [4]); < 100 nM in test [2] (setting [5]). The IC50 at human TTK (read-out: TTK IC50 Range) is < 100 nM.
On to `O=C(N[C@H](c1ccccn1)C1CCCC1)c1ccc2[nH]nc(-c3ccc(N4[C@@H]5CCC[C@H]4COC5)cc3)c2c1` [Example A418, 3-(4-((1R,5S)-3-oxa-9-azabicyclo[3.3.1]nonan-9-yl)phenyl)-N-((S)-cyclopentyl(pyridin-2-yl)methyl)-1H-indazole-5-carboxamide], for which the 50% growth inhibitory concentration (GI50) in test [1] (Homo sapiens, PA-1) is < 100 nM; with TICs (Colon 12) (216 h, Colon 12 TICs), < 100 nM; in the test with TICs (Ovarian 2393A) (144 h, Ovarian 2393A TICs), < 100 nM; in test [2] (Homo sapiens, HCT-116) it was < 100 nM. Moreover, on human TTK, the IC50 was < 100 nM.
Take `O=C(N[C@@H](c1ccccn1)C1CC1)c1ccc2[nH]nc(-c3ccc(N4[C@@H]5CC[C@H]4COC5)cc3)c2c1` [Example A422, 3-(4-((1R,5S)-3-oxa-8-azabicyclo[3.2.1]octan-8-yl)phenyl)-N-((R)-cyclopropyl(pyridin-2-yl)methyl)-1H-indazole-5-carboxamide]: the 50% growth inhibitory concentration (GI50) in test [1] (Homo sapiens, PA-1) was < 100 nM; in the test on TICs (Colon 12) (216 h, Colon 12 TICs), < 100 nM; in the test with TICs (Ovarian 2393A) (144 h, Ovarian 2393A TICs), 100 to 500 nM; in test [2] (Homo sapiens, HCT-116), < 100 nM. Moreover, the IC50 on human TTK (read-out: TTK IC50 Range) is < 100 nM.
On to `CN1[C@@H]2CC[C@H]1C[C@@H](Oc1ccc(-c3n[nH]c4ccc(C(=O)NC(c5ncccn5)C5CCCC5)cc34)cc1)C2` (stereo partly drawn) [Example A385, N-(cyclopentyl(pyrimidin-2-yl)methyl)-3-(4-(((1R,3R,5S)-8-methyl-8-azabicyclo[3.2.1]octan-3-yl)oxy)phenyl)-1H-indazole-5-carboxamide], for which the GI50 in test [1] (Homo sapiens, PA-1) is < 100 nM; with TICs (Colon 12) (216 h, Colon 12 TICs), 100 to 500 nM; with TICs (Ovarian 2393A) (144 h, Ovarian 2393A TICs), < 100 nM; in test [2] (Homo sapiens, HCT-116), < 100 nM. Besides, at human TTK (read-out: TTK IC50 Range), the IC50 was < 100 nM.
Consider `O=C(N[C@H](c1ccccn1)C1CC1)c1ccc2[nH]nc(-c3ccc(N4C5CCC4CC(O)C5)cc3)c2c1` (stereo partly drawn) [Example A307, N-((S)-cyclopropyl(pyridin-2-yl)methyl)-3-(4-((1R,3R,5S)-3-hydroxy-8-azabicyclo[3.2.1]octan-8-yl)phenyl)-1H-indazole-5-carboxamide], for which the GI50 in test [1] (PA-1) is < 100 nM; in the test with TICs (Colon 12) (Colon 12 TICs), 100 to 500 nM; with TICs (Ovarian 2393A) (Ovarian 2393A TICs), 100 to 500 nM; in test [2] (HCT116), < 100 nM. Moreover, the IC50 on human TTK (read-out: TTK IC50 Range) is < 100 nM.
Consider `CC(C)(O)CN1CCC(Oc2ccc(-c3n[nH]c4ccc(C(=O)N[C@H](c5ccccn5)C5CC5)cc34)cc2)CC1` [Example A217, (S)-N-(cyclopropyl(pyridin-2-yl)methyl)-3-(4-((1-(2-hydroxy-2-methylpropyl)piperidin-4-yl)oxy)phenyl)-1H-indazole-5-carboxamide], for which the GI50 in test [1] (Homo sapiens, PA-1) is < 100 nM; in the test on TICs (Colon 12) (216 h, Colon 12 TICs) it was 100 to 500 nM; in the test on TICs (Ovarian 2393A) (144 h, Ovarian 2393A TICs), 100 to 500 nM; in test [2] (Homo sapiens, HCT-116), < 100 nM. Also, the half-maximal inhibitory concentration (IC50) on human TTK (read-out: TTK IC50 Range) was < 100 nM.
Turning to `O=C(NCC1(N2CCOCC2)CCCCC1)c1ccc2[nH]nc(-c3ccc(N4CCOCC4)cc3)c2c1` [Example A447, N-((1-morpholinocyclohexyl)methyl)-3-(4-morpholinophenyl)-1H-indazole-5-carboxamide], the GI50 in test [1] (setting [3]) is < 100 nM; in the test on TICs (Colon 12) (216 h, colon TICs, Alamar Blue) it was < 100 nM; in the test on TICs (Ovarian 2393A) (setting [4]), < 100 nM; in test [2] (setting [5]) it was < 100 nM. At human TTK (read-out: TTK IC50 Range), the concentration for half-maximal inhibition (IC50) was < 100 nM.
